We go through 2 compounds from article PMC7179994 (Thrombosis and haemostasis, 2019).

Assay [1] has as its system leukocyte (neutrophil) infiltration into the peritoneum, wild-type C57BL/6J mice. The experiment in a line: Mouse model of peritonitis, leukocyte infiltration, wild-type mice. It counts as in vivo. As to conditions: 0.8 μM i.v. in 200 μL PBS, without (β15–44)2, 4 hours, n = 7.
The test system of assay [2] is transendothelial migration of leukocytes. As to conditions: fibrinogen; cited from earlier work.

For the compound `CN1CCN(CCOc2cc(OC3CCOCC3)c3c(Nc4c(Cl)ccc5c4OCO5)ncnc3c2)CC1` [Saracatinib], the “Infiltration of leukocytes, Fyn inhibitor alone” value in assay [1] is recorded as “no effect on infiltration of leukocytes”.

Consider fibrinogen, for which the “Transendothelial migration of leukocytes” value in assay [2] is given as “promotes transendothelial migration of leukocytes”.
